Results on 18 compounds are retold here after patent US11673910B2, “Macrolides with modified desosamine sugars and uses thereof” (Zikani Therapeutics, Inc., priority 2017, dated 2023).

Values after ≈ are worked out from the molar mass of the structure shown. Some results are limits rather than exact numbers.

Common to all, as to format: cell-based
One test concerns E. coli strain MP-4. As to the kind of experiment: Broth dilution MIC determination (CLSI) against E. coli strain MP-4. Conditions: Escherichia coli, MP4. The essentials: (§1)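 Reported scores reflect MIC ranges, with +++ at or below 4 mg/L, ++ from 8 up to under 32 mg/L, and + at 32 mg/L or higher. The macrolides were tested following CLSI broth dilution procedures.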
On the technique in general: Broth dilution looks for growth in wells or tubes with falling amounts of substance.

In test [1] the test system is K. pneumoniae strain MP-548. Briefly: Broth dilution MIC determination (CLSI) against K. pneumoniae strain MP-548. Conditions: Klebsiella pneumoniae, MP548. In short, it runs like this:
as §1

The subject of test [2] is P. aeruginosa strain MP-3. As to the kind of experiment: Broth dilution MIC determination (CLSI) against P. aeruginosa strain MP-3. Conditions: Pseudomonas aeruginosa, MP3. In short, it runs like this: as §1
Test [3] relates to A. baumannii strain MP-15. Briefly: Broth dilution MIC determination (CLSI) against A. baumannii strain MP-15. The conditions noted are these: Acinetobacter baumannii, MP15. In short, it runs like this: as §1
In another test the test system is S. aureus strain MP-12. Briefly: Broth dilution MIC determination (CLSI) against S. aureus strain MP-12. Conditions: for MIC: Staphylococcus aureus, MP12, strain MP-12. The essentials: as §1

As a reminder, the MIC is the smallest concentration in the dilution series that meets the test's criterion for growth inhibition. In the case of `CO[C@]1(C)C[C@@H](C)CN[C@H](C)[C@H]2NC(=O)O[C@]2(C)[C@@H](C)OC(=O)C(C)C(=O)[C@H](C)[C@H]1OC1OC(CN(C)C2CCC2)CC(N(C)C)C1O` (stereo partly drawn) [Compound 155, 3-Descladinosyl-3-oxo-6-O-methyl-N9a-desmethyl-11,12-dideoxy-12,11-(oxycarbonylimino)-6′-methylcyclobutylamino-13-methyl Azithromycin], the minimum inhibitory concentration (MIC) in the test on E. coli strain MP-4 was no more than 4 µg/mL; in test [1], 8 to 32 µg/mL (≈ 11.7 to 46.9 µM); in test [2] it was no less than 32 µg/mL; in test [3] it was 8 to 32 µg/mL (≈ 11.7 to 46.9 µM); with S. aureus strain MP-12, no less than 32 µg/mL.
As to `CC[C@H]1OC(=O)C(C)C(=O)[C@H](C)[C@@H](O[C@@H]2O[C@H]([C@@H](C)N(C)C)CC(N(C)C)[C@H]2O)[C@](C)(OC)C[C@@H](C)CN[C@H](C)[C@H]2NC(=O)O[C@@]21C` (stereo partly drawn) [Compound 176, 3-Descladinosyl-3-oxo-6-O-methyl-N9a-desmethyl-11,12-dideoxy-12,11-(oxycarbonylimino)-6′-((R)-(dimethylamino)ethyl) Azithromycin], the minimum inhibitory concentration (MIC) (with E. coli strain MP-4; in test [1]; in test [2]; in test [3]; in the test on S. aureus strain MP-12) was no less than 32 µg/mL each time.
On to `CC[C@H]1OC(=O)C(C)C(=O)[C@H](C)[C@@H](OC2OC(CNCCS(C)(=O)=O)CC(N(C)C)C2O)[C@](C)(OC)C[C@@H](C)CN[C@H](C)[C@H]2NC(=O)O[C@@]21C` (stereo partly drawn) [Compound 140, 3-Descladinosyl-3-oxo-6-O-methyl-N9a-desmethyl-11,12-dideoxy-12,11-(oxycarbonylimino)-6′-2″-(methylsulfonyl)ethan-1″-amino Azithromycin], for which the minimal inhibitory concentration (MIC) (with E. coli strain MP-4; in test [1]; in test [2]; in test [3]; with S. aureus strain MP-12) was no less than 32 µg/mL throughout.
For `CC[C@H]1OC(=O)C(C)C(=O)[C@H](C)[C@@H](OC2OC(CN(C)CC)CC(N(C)C)C2O)[C@](C)(OC)C[C@@H](C)CN(C)[C@H](C)[C@H]2NC(=O)O[C@@]21C` (stereo partly drawn) [Compound 158, 3-Descladinosyl-3-oxo-6-O-methyl-11,12-dideoxy-12,11-(oxycarbonylimino)-6′-ethylmethylamino Azithromycin], the MIC was no more than 4 µg/mL in the test on E. coli strain MP-4; 8 to 32 µg/mL (≈ 11.7 to 46.7 µM) in test [1]; no less than 32 µg/mL in test [2]; no less than 32 µg/mL in test [3]; no less than 32 µg/mL in the test on S. aureus strain MP-12.
In the case of `CC[C@H]1OC(=O)C(C)C(=O)[C@H](C)[C@@H](OC2OC(CN3CC4CC4C3)CC(N(C)C)C2O)[C@](C)(OC)C[C@@H](C)CN[C@H](C)[C@H]2NC(=O)O[C@@]21C` (stereo partly drawn) [Compound 137, 3-Descladinosyl-3-oxo-6-O-methyl-N9a-desmethyl-11,12-dideoxy-12,11-(oxycarbonylimino)-6′-azabicyclo[3.1.0]hexan-3″-ylamino Azithromycin], the minimal inhibitory concentration (MIC) against E. coli strain MP-4 is no more than 4 µg/mL; in test [1], 8 to 32 µg/mL (≈ 11.5 to 46 µM); in test [2] it was no less than 32 µg/mL; in test [3], 8 to 32 µg/mL (≈ 11.5 to 46 µM); against S. aureus strain MP-12, no less than 32 µg/mL.
Take `CC[C@H]1OC(=O)[C@@](C)(F)C(=O)[C@H](C)[C@@H](O[C@@H]2OC(CNCc3ccn(C)n3)CC(N(C)C)C2O)[C@](C)(OC)C[C@@H](C)C(=O)[C@H](C)[C@H]2NC(=O)O[C@@]21C` (stereo partly drawn) [Compound 102]: the MIC is 8 to 32 µg/mL (≈ 10.8 to 43.3 µM) in the test with E. coli strain MP-4; no less than 32 µg/mL in test [1]; no less than 32 µg/mL in test [2]; no less than 32 µg/mL in test [3]; no more than 4 µg/mL in the test with S. aureus strain MP-12.
On to `CC[C@H]1OC(=O)C(C)C(=O)[C@H](C)[C@@H](O[C@@H]2OC(CNCc3ccc(C(F)(F)F)cc3)CC(N(C)C)C2O)[C@](C)(OC)C[C@@H](C)CN[C@H](C)[C@H]2NC(=O)O[C@@]21C` (stereo partly drawn) [Compound 35], for which the MIC against E. coli strain MP-4 was no more than 4 µg/mL; in test [1], no less than 32 µg/mL; in test [2], no less than 32 µg/mL; in test [3], 8 to 32 µg/mL (≈ 10.2 to 40.7 µM); against S. aureus strain MP-12, no less than 32 µg/mL.
With `CC[C@H]1OC(=O)C(C)C(=O)[C@H](C)[C@@H](O[C@@H]2OC(CNCc3cccc(C#N)c3)CC(N(C)C)C2O)[C@](C)(OC)C[C@@H](C)CN[C@H](C)[C@H]2NC(=O)O[C@@]21C` (stereo partly drawn) [Compound 41], the MIC in the test with E. coli strain MP-4 was no more than 4 µg/mL; in test [1] it was no less than 32 µg/mL; in test [2], no less than 32 µg/mL; in test [3], no less than 32 µg/mL; against S. aureus strain MP-12, no less than 32 µg/mL.
Consider `CC[C@H]1OC(=O)C(C)C(=O)[C@H](C)[C@@H](OC2OC(CNCC(F)(F)F)CC(N(C)C)C2O)[C@](C)(OC)C[C@@H](C)CN[C@H](C)[C@H]2NC(=O)O[C@@]21C` (stereo partly drawn) [Compound 112, 3-Descladinosyl-3-oxo-6-O-methyl-N9a-desmethyl-11,12-dideoxy-12,11-(oxycarbonylimino)-6′-(2-trifluoroethylamino) Azithromycin], for which the MIC with E. coli strain MP-4 is no more than 4 µg/mL; in test [1], 8 to 32 µg/mL (≈ 11.3 to 45 µM); in test [2], no less than 32 µg/mL; in test [3] it was 8 to 32 µg/mL (≈ 11.3 to 45 µM); with S. aureus strain MP-12, no more than 4 µg/mL.
As to `CC[C@H]1OC(=O)C(C)C(=O)[C@H](C)[C@@H](OC2OC(CNC(C)(C)C)CC(N(C)C)C2O)[C@](C)(OC)C[C@@H](C)CN[C@H](C)[C@H]2NC(=O)O[C@@]21C` (stereo partly drawn) [Compound 110, 3-Descladinosyl-3-oxo-6-O-methyl-N9a-desmethyl-11,12-dideoxy-12,11-(oxycarbonylimino)-6′-tert-butylamino Azithromycin], the MIC in the test on E. coli strain MP-4 is no more than 4 µg/mL; in test [1], 8 to 32 µg/mL (≈ 11.7 to 46.7 µM); in test [2], no less than 32 µg/mL; in test [3], no less than 32 µg/mL; in the test with S. aureus strain MP-12 it was no less than 32 µg/mL.
Take `CC[C@H]1OC(=O)C(C)C(=O)[C@H](C)[C@@H](OC2OC(CN3CCN(C)CC3)CC(N(C)C)C2O)[C@](C)(OC)C[C@@H](C)CN[C@H](C)[C@H]2NC(=O)O[C@@]21C` (stereo partly drawn) [Compound 126, 3-Descladinosyl-3-oxo-6-O-methyl-N9a-desmethyl-11,12-dideoxy-12,11-(oxycarbonylimino)-6′-(1-(4-methyl)-piperazinyl) Azithromycin]: the MIC in the test on E. coli strain MP-4 was no more than 4 µg/mL; in test [1], 8 to 32 µg/mL (≈ 11.2 to 44.9 µM); in test [2], no less than 32 µg/mL; in test [3], no less than 32 µg/mL; with S. aureus strain MP-12, no less than 32 µg/mL.
`CC[C@H]1OC(=O)C(C)C(=O)[C@H](C)[C@@H](OC2OC(CNCCN(C)C)CC(N(C)C)C2O)[C@](C)(OC)C[C@@H](C)CN[C@H](C)[C@H]2NC(=O)O[C@@]21C` (stereo partly drawn) [Compound 130, 3-Descladinosyl-3-oxo-6-O-methyl-N9a-desmethyl-11,12-dideoxy-12,11-(oxycarbonylimino)-6′-[(2-dimethylamino)ethylamino]Azithromycin]: the MIC (in the test with E. coli strain MP-4; in test [1]; in test [2]; in test [3]; against S. aureus strain MP-12) was no less than 32 µg/mL each time.
In the case of `CC[C@H]1OC(=O)C(C)C(=O)[C@H](C)[C@@H](O[C@@H]2O[C@H](CCc3ccccc3)CC(N(C)C)[C@H]2O)[C@](C)(OC)C[C@@H](C)CN[C@H](C)[C@H]2NC(=O)O[C@@]21C` (stereo partly drawn) [Compound 186, 3-Descladinosyl-3-oxo-6-O-methyl-N9a-desmethyl-11,12-dideoxy-12,11-(oxycarbonylimino)-6′-benzyl Azithromycin], the MIC was no more than 4 µg/mL with E. coli strain MP-4; 8 to 32 µg/mL (≈ 11.4 to 45.5 µM) in test [1]; no less than 32 µg/mL in test [2]; 8 to 32 µg/mL (≈ 11.4 to 45.5 µM) in test [3]; no more than 4 µg/mL against S. aureus strain MP-12.
Regarding `CC[C@H]1OC(=O)C(C)C(=O)[C@H](C)[C@@H](OC2OC(CN3CCC3)CC(N(C)C)C2O)[C@](C)(OC)C[C@@H](C)CN[C@H](C)[C@H]2NC(=O)O[C@@]21C` (stereo partly drawn) [Compound 121, 3-Descladinosyl-3-oxo-6-O-methyl-N9a-desmethyl-11,12-dideoxy-12,11-(oxycarbonylimino)-6′-(1-azetininyl) Azithromycin], the MIC in the test with E. coli strain MP-4 is 8 to 32 µg/mL (≈ 12 to 47.8 µM); in test [1] it was no less than 32 µg/mL; in test [2], no less than 32 µg/mL; in test [3], no less than 32 µg/mL; against S. aureus strain MP-12, no less than 32 µg/mL.
On to `CC[C@H]1OC(=O)[C@]2(C)CCOC(C)(C[C@@H](C)CN[C@H](C)[C@H]3NC(=O)O[C@@]31C)[C@H](O[C@@H]1O[C@H](CNC34CC(C3)C4)C[C@H](N(C)C)[C@H]1O)[C@@H](C)C2=O` [Compound 212], for which the MIC is no more than 4 µg/mL in the test with E. coli strain MP-4, 8 to 32 µg/mL (≈ 11.3 to 45.3 µM) in test [1], no less than 32 µg/mL in test [2] and 8 to 32 µg/mL (≈ 11.3 to 45.3 µM) in test [3]. The “MIC against S. aureus (MP-12)” value in the test with S. aureus strain MP-12 (strain MP-12) is “+++ (values less than or equal to 4 mg/L)”.
As to `CC[C@H]1OC(=O)C(C)C(=O)[C@H](C)[C@@H](OC2OC(CN(C)OC)CC(N(C)C)C2O)[C@](C)(OC)C[C@@H](C)CN[C@H](C)[C@H]2NC(=O)O[C@@]21C` (stereo partly drawn) [Compound 145], the MIC was 8 to 32 µg/mL (≈ 11.9 to 47.6 µM) against E. coli strain MP-4; 8 to 32 µg/mL (≈ 11.9 to 47.6 µM) in test [1]; no less than 32 µg/mL in test [2]; no less than 32 µg/mL in test [3]; no less than 32 µg/mL against S. aureus strain MP-12.
As to `CC[C@H]1OC(=O)C(C)(C)C(=O)[C@H](C)[C@@H](O[C@@H]2O[C@H](CNC3CC3)CC(N(C)C)[C@H]2O)[C@](C)(OC)C[C@@H](C)CN(C)[C@H](C)[C@H]2NC(=O)O[C@@]21C` (stereo partly drawn) [Compound 190, 2-Methyl-3-descladinosyl-3-oxo-6-O-methyl-N9a-desmethyl-11,12-dideoxy-12,11-(oxycarbonylimino)-6′-cylcopropylamino Azithromycin], the MIC (in the test with E. coli strain MP-4; in test [1]; in test [2]; in test [3]; against S. aureus strain MP-12) was no less than 32 µg/mL each time.
`CO[C@]1(C)C[C@@H](C)CN[C@H](C)[C@H]2NC(=O)O[C@]2(C)[C@@H](C)OC(=O)C(C)C(=O)[C@H](C)[C@H]1OC1OC(CNC2CCC2)CC(N(C)C)C1O` (stereo partly drawn) [Compound 147, 3-Descladinosyl-3-oxo-6-O-methyl-N9a-desmethyl-11,12-dideoxy-12,11-(oxycarbonylimino)-6′-cyclobutylamino-13-methyl Azithromycin]: the MIC in the test on E. coli strain MP-4 is 8 to 32 µg/mL (≈ 12 to 47.8 µM); in test [1] it was no less than 32 µg/mL; in test [2], no less than 32 µg/mL; in test [3] it was no less than 32 µg/mL; against S. aureus strain MP-12, no less than 32 µg/mL.
